# How the values were obtained:
# Human LBAT = biological target: T1, Human LBAT (Homo sapiens, UniProt Q14973); experiment: LBAT (h/m) assay, human LBAT-overexpressing cells, 3H-taurocholic acid uptake; type: cell-based; conditions: 0.3 μM 3H-taurocholic acid and 7.5 μM cold taurocholic acid, 20 minutes, read-out: hLBAT IC50
# T1 construct: expressed in transfected cells; Geneticin selection
# T1 sequence (Q14973 1-349): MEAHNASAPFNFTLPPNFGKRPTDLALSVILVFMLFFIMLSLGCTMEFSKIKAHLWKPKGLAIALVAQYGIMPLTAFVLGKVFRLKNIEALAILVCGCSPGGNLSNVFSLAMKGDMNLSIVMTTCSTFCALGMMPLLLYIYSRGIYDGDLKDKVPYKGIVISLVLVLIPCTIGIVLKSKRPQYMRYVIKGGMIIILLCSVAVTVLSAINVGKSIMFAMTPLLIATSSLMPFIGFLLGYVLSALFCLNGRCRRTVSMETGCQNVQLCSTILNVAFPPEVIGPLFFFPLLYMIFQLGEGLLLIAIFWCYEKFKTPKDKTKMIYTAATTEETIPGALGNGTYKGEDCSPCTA
# Method: 20,000 cells (Human or Mouse LBAT-overexpressing cells) were seeded in 96-wells plate (Corning CLS3809) in 100 μL MEM-alpha medium (Gibco 12571-063) supplemented with 10% FBS (Gibco 10438026) containing Geneticin (Gibco 10131-027) (1 mg/mL) and incubated at 37° C. in 5% CO2 for 24 hours. After incubation, media was decanted from the wells and cells were washed two times with 300 μL of basal MEM-alpha medium (FBS-free). After decanting basal MEM-alpha medium each time, plates were tapped against paper towel to ensure maximum removal of residual media.
# For human LBAT, incubation mix was prepared by adding test inhibitor dilutions (3-fold serial dilution in DMSO (Sigma D2650), 10 points) in MEM-alpha (without FBS) containing 0.3 μM 3H-taurocholic acid (ARC ART-1368) and 7.5 μM cold taurocholic acid (Sigma T4009) (maintaining 0.2% final DMSO concentration). For mouse LBAT, incubation mix was prepared by adding test inhibitor dilutions (3-fold serial dilution in DMSO, 10 points) in MEM-alpha (without FBS) containing 0.3 μM 3H-taurocholic acid and 25 μM cold taurocholic acid maintaining 0.2% final DMSO concentration).
# 50 μL of incubation mix containing test inhibitors was then added to the wells (in duplicate) and the plates were incubated for 20 minutes in a CO2 incubator at 37° C. After incubation, the reaction was stopped by keeping the plates on ice water mix for 2-3 minutes and then the incubation mix was aspirated completely from the wells. The wells were washed two times with 250 μL of chilled unlabeled 1 mM taurocholic acid dissolved in HEPES (Gibco 15630080)-buffered (10 mM) HBSS (Gibco 14175079) (pH 7.4). The plates were tapped against a paper towel after every wash to ensure maximum removal of blocking buffer.
# 100 μL of MicroScint-20 (PerkinElmer 6013621) was added to the wells and kept overnight at room temperature before reading the plates in TopCount NXT™ Microplate Scintillation and Luminescence Counter from PerkinElmer under 3H Test protocol (set at 120 seconds reading time per well, with normal plate orientation).
# (§1) All test compounds were provided in powder form at room temperature. 10 mM DMSO stocks of the test compounds were prepared, aliquoted and stored at −20° C. From the 10 mM DMSO stock of the compounds, a 3-fold serial dilution in DMSO was prepared to get a total of 10 dilutions of the test compounds. 0.5 μL of this dilution in DMSO was added to 250 μL of FBS-free basal media containing 3H-taurocholic acid and cold taurocholic acid to prepare the incubation mixture.
# Human IBAT = biological target: T2, Human IBAT (Homo sapiens, UniProt Q12908); experiment: IBAT (h/m) assay, human IBAT-overexpressing cells, 3H-taurocholic acid uptake; type: cell-based; conditions: highest test concentration 10 μM, 20 minutes, read-out: hIBAT IC50
# T2 construct: expressed in transfected cells; Puromycin selection
# T2 sequence (Q12908 1-348): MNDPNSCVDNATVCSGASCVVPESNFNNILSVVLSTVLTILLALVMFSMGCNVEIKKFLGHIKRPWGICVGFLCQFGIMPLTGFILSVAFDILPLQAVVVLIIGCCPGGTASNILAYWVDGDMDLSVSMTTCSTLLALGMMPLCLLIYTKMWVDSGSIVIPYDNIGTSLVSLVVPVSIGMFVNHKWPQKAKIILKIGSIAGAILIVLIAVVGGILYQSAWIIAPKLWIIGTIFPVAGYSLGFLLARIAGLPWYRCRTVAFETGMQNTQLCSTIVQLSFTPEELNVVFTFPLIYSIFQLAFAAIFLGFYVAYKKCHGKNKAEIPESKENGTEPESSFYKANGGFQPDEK
# Method: 10,000 cells (Human or Mouse IBAT-overexpressing cells) were seeded in 96-wells plate (Corning CLS3809) in 200 μL MEM-alpha medium (Gibco 12571-063) supplemented with 10% FBS (Gibco 10438026) containing Puromycin (Gibco A1113803) (10 μg/mL) and incubated at 37° C. in 5% CO2 for 48 hours. After incubation, media was decanted from the wells and cells were washed two times with 300 μL of basal MEM-alpha medium (FBS-free). After decanting basal MEM-alpha medium each time, plates were tapped against paper towel to ensure maximum removal of residual media. Test inhibitor dilutions (highest test concentration being 10 μM, 3-fold serial dilution, 10 points) prepared in DMSO (Sigma D2650) were added in incubation mix (maintaining 0.2% final DMSO concentration) containing 0.25 μM 3H-taurocholic acid (ARC ART-1368) and 5 μM of cold taurocholic acid (Sigma T4009). 50 μL of incubation mix containing test inhibitors was then added to the wells (in duplicate) and the plates were incubated for 20 minutes in a CO2 incubator at 37° C. After incubation, the reaction was stopped by keeping the plates on ice water mix for 2-3 minutes and then the incubation mix was aspirated completely from the wells. The wells were washed two times with 250 μL of chilled unlabeled 1 mM taurocholic acid dissolved in HEPES (Gibco 15630080)-buffered (10 mM) HBSS (Gibco 14175079) (pH 7.4). The plates were tapped against a paper towel after every wash to ensure maximum removal of blocking buffer.
# 100 μL of MicroScint-20 (PerkinElmer 6013621) was added to the wells and kept overnight at room temperature before reading the plates in TopCount NXT™ Microplate Scintillation and Luminescence Counter from PerkinElmer under 3H Test protocol (set at 120 seconds reading time per well).
# as §1
Compound,IC50 (Human LBAT),IC50 (Human IBAT)
"CCCCC1CN(c2ccccc2)c2cc(SC)c(O/C=C/C(=O)O)cc2S(=O)(=O)N1C (racemic) [Example 14, (E)-3-((3-butyl-2-methyl-7-(methylthio)-1,1-dioxido-5-phenyl-2,3,4,5-tetrahydro-1,2,5-benzothiadiazepin-8-yl)oxy)acrylic Acid]",3.4 nM,–
"CCCCC1CN(c2ccccc2)c2cc(SCC)c(O/C=C/C(=O)O)cc2S(=O)(=O)N1C (racemic) [Example 17, (E)-3-((3-butyl-7-(ethylthio)-2-methyl-1,1-dioxido-5-phenyl-2,3,4,5-tetrahydro-1,2,5-benzothiadiazepin-8-yl)oxy)acrylic Acid]",2.3 nM,–
"CCCCC1CN(c2ccc(F)cc2)c2cc(SC)c(O/C=C/C(=O)O)cc2S(=O)(=O)N1C (racemic) [Example 20, (E)-3-((3-butyl-5-(4-fluorophenyl)-2-methyl-7-(methylthio)-1,1-dioxido-2,3,4,5-tetrahydro-1,2,5-benzothiadiazepin-8-yl)oxy)acrylic Acid]",4.5 nM,1150 nM
"CCCC[C@@H]1CN(c2ccccc2)c2cc(SC)c(O/C=C/C(=O)O)cc2S(=O)(=O)C1 (single isomer, unassigned) [Example 2]",469 nM,–
"CCCC[C@H]1CN(c2ccccc2)c2cc(SC)c(O/C=C(\F)C(=O)O)cc2S(=O)(=O)C1 (single isomer, unassigned) [Example 5]",28 nM,–
"CCCC[C@H]1CN(c2ccccc2)c2cc(SC)c(O/C=C(\F)C(=O)O)cc2S(=O)(=O)N1C (single isomer, unassigned) [Example 12]",78 nM,–
"CCCC[C@@H]1CN(c2ccccc2)c2cc(SC)c(O/C=C/C(=O)O)cc2S(=O)(=O)N1C (single isomer, unassigned) [Example 16]",105 nM,–
"CCCC[C@@H]1CN(c2ccccc2)c2cc(SCC)c(O/C=C/C(=O)O)cc2S(=O)(=O)N1C (single isomer, unassigned) [Example 19]",70 nM,> 10000 nM
"CCCC[C@H]1CN(c2ccc(F)cc2)c2cc(SC)c(O/C=C/C(=O)O)cc2S(=O)(=O)N1C (single isomer, unassigned) [Example 21]",3 nM,644 nM
"CCC1CN(c2ccccc2)c2cc(SC)c(O/C=C(\F)C(=O)O)cc2S(=O)(=O)C1 (centres unmarked) [Example 7, (Z)-3-((3-ethyl-7-(methylthio)-1,1-dioxido-5-phenyl-2,3,4,5-tetrahydro-1,5-benzothiazepin-8-yl)oxy)-2-fluoroacrylic Acid]",73 nM,–
"CCC1CN(c2ccccc2)c2cc(SC)c(O/C=C/C(=O)O)cc2S(=O)(=O)C1 (centres unmarked) [Example 8, (E)-3-((3-ethyl-7-(methylthio)-1,1-dioxido-5-phenyl-2,3,4,5-tetrahydro-1,5-benzothiazepin-8-yl)oxy)acrylic Acid]",242 nM,–
"CCCCC1CN(c2ccccc2)c2cc(SC)c(O/C=C/C(=O)O)cc2S(=O)(=O)N1 (centres unmarked) [Example 9, (E)-3-((3-butyl-7-(methylthio)-1,1-dioxido-5-phenyl-2,3,4,5-tetrahydro-1,2,5-benzothiadiazepin-8-yl)oxy)acrylic Acid]",8.2 nM,–
"CCCCC1CN(c2ccccc2)c2cc(SC)c(O/C=C(\F)C(=O)O)cc2S(=O)(=O)N1C (centres unmarked) [Example 11, (Z)-3-((3-butyl-2-methyl-7-(methylthio)-1,1-dioxido-5-phenyl-2,3,4,5-tetrahydro-1,2,5-benzothiadiazepin-8-yl)oxy)-2-fluoroacrylic Acid]",1.1 nM,830 nM

# Now from value to compound:
IC50 (Human LBAT),IC50 (Human IBAT),Compound
8.7 nM,> 10000 nM,"CCCCC1CN(c2ccc(F)cc2)c2cc(SC)c(O/C=C/C(=O)O)cc2S(=O)(=O)C1 (racemic) [Example 26, (E)-3-((3-butyl-5-(4-fluorophenyl)-7-(methylthio)-1,1-dioxido-2,3,4,5-tetrahydro-1,5-benzothiazepin-8-yl)oxy)acrylic Acid]"
591 nM,> 10000 nM,"CCCC[C@@H]1CN(c2ccc(F)cc2)c2cc(SC)c(O/C=C/C(=O)O)cc2S(=O)(=O)N1C (single isomer, unassigned) [Example 22]"
0.34 nM,265 nM,"CCCC[C@H]1CN(c2ccc(F)cc2)c2cc(SCC)c(O/C=C/C(=O)O)cc2S(=O)(=O)N1C (single isomer, unassigned) [Example 24]"
267 nM,–,"CCCC[C@@H]1CN(c2ccc(F)cc2)c2cc(SCC)c(O/C=C/C(=O)O)cc2S(=O)(=O)N1C (single isomer, unassigned) [Example 25]"
354 nM,> 10000 nM,"CCCC[C@H]1CN(c2ccc(F)cc2)c2cc(SC)c(O/C=C/C(=O)O)cc2S(=O)(=O)C1 (single isomer, unassigned) [Example 27]"
1.9 nM,> 3330 nM,"CCCC[C@@H]1CN(c2ccc(F)cc2)c2cc(SC)c(O/C=C/C(=O)O)cc2S(=O)(=O)C1 (single isomer, unassigned) [Example 28]"
9.5 nM,> 10000 nM,"CCCCC1CN(c2ccccc2)c2cc(SCC)c(O/C=C/C(=O)O)cc2S(=O)(=O)C1 (centres unmarked) [Example 30, (E)-3-((3-Butyl-7-(ethylthio)-1,1-dioxido-5-phenyl-2,3,4,5-tetrahydro-1,5-benzothiazepin-8-yl)oxy)acrylic Acid]"
–,> 10000 nM,"CCCCC1CN(c2ccccc2)c2cc(SCC)c(O/C=C/C(=O)O)cc2S(=O)(=O)N1 (centres unmarked) [Example 31, (E)-3-((3-Butyl-7-(ethylthio)-1,1-dioxido-5-phenyl-2,3,4,5-tetrahydro-1,2,5-benzothiadiazepin-8-yl)oxy)acrylic Acid]"
–,> 10000 nM,"CCCCC1CN(c2ccc(F)cc2)c2cc(SCC)c(O/C=C/C(=O)O)cc2S(=O)(=O)C1 (centres unmarked) [Example 32, (E)-3-((3-Butyl-7-(ethylthio)-5-(4-fluorophenyl)-1,1-dioxido-2,3,4,5-tetrahydro-1,5-benzothiazepin-8-yl)oxy)acrylic Acid]"

# Reference: US11708340B2, “Benzothia(di)azepine compounds and their use as bile acid modulators” (Albireo AB, priority 2019, dated 2023)
